We go through one compound from paper PMC8146939 (Biomedicines, 2021).

Structures are written as SMILES.

The target in this test is T1, GIRK2 (Homo sapiens, UniProt P48051).
T1 construct: gene KCNJ6; homotetramer GIRK2
T1 sequence (P48051 1-423): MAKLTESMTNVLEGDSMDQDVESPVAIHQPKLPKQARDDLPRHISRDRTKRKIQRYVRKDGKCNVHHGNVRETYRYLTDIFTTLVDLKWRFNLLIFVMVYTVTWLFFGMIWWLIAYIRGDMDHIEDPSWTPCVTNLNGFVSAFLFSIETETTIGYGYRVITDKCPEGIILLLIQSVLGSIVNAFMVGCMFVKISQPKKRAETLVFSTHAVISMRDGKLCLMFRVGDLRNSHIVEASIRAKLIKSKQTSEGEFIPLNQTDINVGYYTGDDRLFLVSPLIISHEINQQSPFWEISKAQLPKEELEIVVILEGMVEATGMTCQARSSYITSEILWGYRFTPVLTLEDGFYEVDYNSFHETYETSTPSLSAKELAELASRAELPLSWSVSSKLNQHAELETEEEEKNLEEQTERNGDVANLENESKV
The experiment in a line: two-electrode voltage clamp in Xenopus oocytes expressing homotetrameric GIRK2, single concentration […]. The format is cell-based. Conditions: read-out: % reduction in inward K+ currents at 10 μM. Background: In two-electrode clamp one electrode senses voltage and the other passes current.

As to `Cc1c(C(=O)c2cccc3ccccc23)c2cccc3c2n1[C@H](CN1CCOCC1)CO3` [WIN55,212-2], the inhibition at 10 µM came to 8.91 ± 1.68%.
